According to patent US20220401617A1, “ADHESIVE COMPOSITIONS COMPRISING THERAPEUTICS” (RevBio, Inc., priority 2019, published 2022):
Counter-ions that a name gives are not always drawn.

How the values were obtained:
[1] = assay type: physicochemical
Description: Several formulations of compositions comprising pain relievers (e.g., locally acting analgesics (e.g., naproxen and diclofenac) or local anesthetics (e.g. bupivacaine and articaine) were investigated for their affinity to the adhesive composition. The affinity of the therapeutic depends on the nature of the therapeutic and its interaction with the composition. This is measured as the partition coefficient which is the ratio of the amount of drug released from the composition to the ratio of the amount of drug retained in the composition under specific conditions.
The specific composition (e.g., adhesive composition) comprised 400 mg tetracalcium phosphate, 250 mg phosphoserine (a compound in FIG. 1V-a), and 135 μl of water that was prepared by mixing for 30 seconds, after which the mixture was formed into standard spherical substrates and allowed to cure. The substrate was then crushed using a mortar and pestle and used as a control. For the composition comprising a therapeutic, 1% w/w of the therapeutic was added to the tetracalcium phosphate and phosphoserine powder blend. The therapeutic was thoroughly mixed with tetracalcium phosphate and phosphoserine, after which deionized water was added and mixed for 30 seconds. Standard spherical substrates approximately 8 mm in diameter of adhesive composition were prepared. After curing, the substrate was crushed using mortar and pestle and the samples were incubated in 50 mL 1× PBS solution for 18 hours at 37° C. The partition coefficient of the therapeutic was evaluated using high-pressure liquid chromatography (HPLC) as shown in Table 3 below.

[2] = Release of bupivacaine from porous adhesive composition formulation (HPLC elution); assay type: physicochemical; conditions: 10% w/w drug, 50 mL 1x PBS, 7-day period, 37° C.
Description: Several formulations of compositions comprising pain relievers (e.g., local anesthetics (e.g. bupivacaine)) were investigated. […] The release study was analyzed using elution studies, where HPLC was used to analyze the amount of pain reliever released over time. The elution profile of bupivacaine from a porous adhesive composition matrix was analyzed over a 7-day period.
The particle size of calcium carbonate was between 15 nm to 40 nm. This formulation was used a control for the study. […] A bupivacaine formulation was tested by adding 10% w/w of the drug to the tetracalcium phosphate and phosphoserine powder blend. Standard spherical substrates of approximately 8 mm in diameter of porous adhesive bone regenerative were prepared. After curing, the samples were incubated in 50 mL 1× PBS solution for 7-days at 37° C.

[3] = 8% w/w naproxen, ssNMR
[4] = Properties of exemplary adhesive compositions (compound + tetra-calcium phosphate + water); assay type: physicochemical; conditions: mixed with tetra-calcium phosphate and water
Description: Exemplary adhesive compositions were prepared by providing the compounds listed in Table 1 and tetra-calcium phosphate in a suitable receptacle and mixing with water to achieve the desired consistency. While water was used as the aqueous medium in the present compositions, the aqueous medium may instead be blood, saliva, serum, or a blood-based solution or suspension. In the present compositions, the solid components (compounds, tetra-calcium phosphate) were provided as particles. However, the solid components listed in the table may be provided in particle, granule, or fiber form, and the size of each of the components may vary as described in the Detailed Description. In some embodiments, the resulting properties, such as working and setting time, may be affected by these changes. The specific mean particle, granule, or fiber size for each solid component was selected to satisfy the use requirements as described in each of the embodiments.
The compounds comprising glyphosine, O-Phospho-L-serine (OPLS), […] […] After mixing, the compositions described were applied to the desired site and the adhesive properties examined, e.g., for tensile strength and durability.

[5] = Retention/elution of gentamicin from adhesive composition matrix (HPLC); assay type: physicochemical; conditions: 2.5% w/w or 5% w/w gentamicin, PBS, 37° C., 10 days incubation
Description: Several formulations of compositions comprising antibiotics (AB) were investigated. The retention of the AB within the compositions may avoid or prevent bacterial colonization on or within the cured adhesive composition or any post-operative infection that could develop. The retention study was analyzed using elution studies, wherein high-pressure liquid chromatography (HPLC) was used to analyze the amount of AB released over time. Particularly, the elution profile of gentamicin from adhesive composition matrix was analyzed at days 1, 3, 5 and 10.
Several compositions were tested by adding either 2.5% w/w or 5% w/w of gentamicin to the tetracalcium phosphate and phosphoserine powder blend. Each cylinder was immersed in a polypropylene tube with 5 ml phosphate buffered saline (PBS) and shaken in a rotator at 37° C. Over the study period of 10 days, daily transfer of the cement cylinder into a test tube with PBS was conducted after saline washings. Elution samples of PBS was collected at various time points over a period of 10 days. The control was adhesive composition with no gentamicin, and the standard was different concentration of gentamicin alone.

| Molecule | Partition coefficient [1] | Properties of the adhesive composition prepared with the compound [4] | further results |
| --- | --- | --- | --- |
| CC(=O)Oc1ccccc1C(=O)O [Aspirin] | 0.61 | – | – |
| CCCCN1CCCCC1C(=O)Nc1c(C)cccc1C (stereo not drawn) [Bupivacaine•HCl] | 0.37 | – | % bupivacaine release, porous vs non-porous formulation [2]: remarkable increase |
| O=C(O)Cc1ccccc1Nc1c(Cl)cccc1Cl [Diclofenac•Na] | 0.103 | – | – |
| CC(C)Cc1ccc(C(C)C(=O)O)cc1 (stereo not drawn) [Ibuprofen] | 0 | – | – |
| COc1ccc2cc([C@H](C)C(=O)O)ccc2c1 [Naproxen] | – | – | Elution of naproxen from the adhesive composition ([3]; crushed, 10 mL 1x PBS, 4-days, 37° C.): almost fully eluted; Modification of chemical structure upon inclusion in the adhesive composition [3]: no modification of the naproxen chemical structure |
| N[C@@H](COP(=O)(O)O)C(=O)O [O-Phospho-L-serine, O-Phospho-L-Serine] | – | injectable, adhesive, tacky, and self-setting | – |
| O=P(O)(O)CN(CP(=O)(O)O)CP(=O)(O)O [aminotris(methylenephosphonic acid), (Nitrilotris(methylene)) triphosphonic acid] | – | injectable, adhesive, tacky, and self-setting | – |
| O=C(O)CN(CCN(CC(=O)O)CC(=O)O)CC(=O)O [ethylenediaminetetraacetic acid, Ethylenediamine tetraacetic acid] | – | injectable, adhesive, tacky, and self-setting | – |
| O=C(O)CN(CP(=O)(O)O)CP(=O)(O)O [glyphosine, N,N-Bis(phosphonomethyl)glycine] | – | injectable, adhesive, tacky, and self-setting | – |
| gentamicin | – | – | Retention of gentamicin in the adhesive composition [5]: most of gentamicin was retained |
